From patent publication US20260345619A1 (Principia Biopharma Inc., priority 2023, published 2026)

Assay: Asthma Quality of Life Questionnaire with Standardized Activities (AQLQ(S))
Assay type: in vivo, human
Details: mITT
Excerpt: The AQLQ(S) is a self-administered patient reported outcome to measure the functional impairments that are most troublesome to adolescents and adults ≥12 years of age as a result of their asthma.
Asthma Quality of Life Questionnaire with Standardized Activities (AQLQ(S)) self-administered (≥12 years)
The AQLQ(S) was designed as a self-administered patient reported outcome to measure the functional impairments that are most troublesome to adolescents and adults ≥12 years of age as a result of their asthma. The instrument is comprised of 32 items, each rated on a 7-point Likert scales from 1 to 7. The AQLQ(S) has 4 domains. The domains and the number of items in each domain are as follows: • Symptoms (12 items) • Activity limitation (11 items) • Emotional function (5 items) • Environmental stimuli (4 items)
A global score is calculated ranging from 1 to 7 and a score by domain. Higher scores indicate better quality of life. […] Patients were to complete the questionnaire in an electronic diary during on-site visits.
Secondary endpoints included pre-bronchodilator FEV1 change from baseline at EOT, ACQ-5 score change from baseline, and AQLQ score change from baseline. Other secondary and exploratory endpoints are described in Table 2.

CC(C)(C=C(C#N)C(=O)N1CCC[C@@H](n2nc(-c3ccc(Oc4ccccc4)cc3F)c3c(N)ncnc32)C1)N1CCN(C2COC2)CC1 (mixture of isomers) [rilzabrutinib, (R)-2-[3-[4-amino-3-(2-fluoro-4-phenoxy-phenyl)pyrazolo[3,4-d]pyrimidin-1-yl]piperidine-1-carbonyl]-4-methyl-4-[4-(oxetan-3-yl)piperazin-1-yl]pent-2-enenitrile]
AQLQ(S) Global score, Mean (Week 8, 400 mg TID): 5.27 | AQLQ(S) Global score, Median (Week 8, 400 mg TID): 5.06 | AQLQ(S) Global score, change from baseline, LS Mean (Week 8, 400 mg TID): 0.42 | AQLQ(S) Global score, change from baseline, Mean (Week 8, 400 mg TID): 0.29 | AQLQ(S) Global score, change from baseline, Median (Week 8, 400 mg TID): 0.34 | AQLQ(S) Symptoms score, Mean (Week 8, 400 mg TID): 5.29 | AQLQ(S) Symptoms score, Median (Week 8, 400 mg TID): 5.17 | AQLQ(S) Symptoms score, change from baseline, LS Mean (Week 8, 400 mg TID): 0.44 | AQLQ(S) Symptoms score, change from baseline, Mean (Week 8, 400 mg TID): 0.29 | AQLQ(S) Symptoms score, change from baseline, Median (Week 8, 400 mg TID): 0.38 | AQLQ(S) Symptoms score, change from baseline, LS Mean Diff vs. placebo (Week 8, 400 mg TID, 95% CI −0.16, 0.43): 0.13 | AQLQ(S) Global score, change from baseline, LS Mean Diff vs. placebo (Week 8, 400 mg TID, 95% CI −0.18, 0.37): 0.10 | AQLQ(S) Activity limitation score, change from baseline, LS Mean Diff vs. placebo (Week 8, 400 mg TID, 95% CI −0.18, 0.38): 0.10 | AQLQ(S) Emotional function score, change from baseline, LS Mean Diff vs. placebo (Week 8, 400 mg TID, 95% CI −0.20, 0.45): 0.13 | AQLQ(S) Environmental stimuli score, change from baseline, LS Mean Diff vs. placebo (Week 8, 400 mg TID, 95% CI −0.34, 0.47): 0.06 | AQLQ(S) Activity limitation score, Mean (Week 12, 400 mg BID): 5.66 | AQLQ(S) Activity limitation score, Median (Week 12, 400 mg BID): 5.82 | AQLQ(S) Activity limitation score, change from baseline, LS Mean (Week 12, 400 mg BID): 0.77 | AQLQ(S) Activity limitation score, change from baseline, Mean (Week 12, 400 mg BID): 0.85 | AQLQ(S) Activity limitation score, change from baseline, Median (Week 12, 400 mg BID): 0.45 | AQLQ(S) Emotional function score, Mean (Week 12, 400 mg BID): 5.96 | AQLQ(S) Emotional function score, Median (Week 12, 400 mg BID): 6.20 | AQLQ(S) Emotional function score, change from baseline, LS Mean (Week 12, 400 mg BID): 0.97 | AQLQ(S) Emotional function score, change from baseline, Mean (Week 12, 400 mg BID): 0.72 | AQLQ(S) Emotional function score, change from baseline, Median (Week 12, 400 mg BID): 0.40 | AQLQ(S) Environmental stimuli score, Mean (Week 12, 400 mg BID): 5.34 | AQLQ(S) Environmental stimuli score, change from baseline, LS Mean (Week 12, 400 mg BID): 0.70 | AQLQ(S) Environmental stimuli score, change from baseline, Mean (Week 12, 400 mg BID): 0.87 | AQLQ(S) Environmental stimuli score, change from baseline, Median (Week 12, 400 mg BID): 0.50 | AQLQ(S) Global score, Mean (Week 12, 400 mg BID): 5.75 | AQLQ(S) Global score, Median (Week 12, 400 mg BID): 5.72 | AQLQ(S) Global score, change from baseline, LS Mean (Week 12, 400 mg BID): 0.82 | AQLQ(S) Global score, change from baseline, Mean (Week 12, 400 mg BID): 0.84 | AQLQ(S) Global score, change from baseline, Median (Week 12, 400 mg BID): 0.69 | AQLQ(S) Symptoms score, Mean (Week 12, 400 mg BID): 5.87 | AQLQ(S) Symptoms score, Median (Week 12, 400 mg BID): 5.92 | AQLQ(S) Symptoms score, change from baseline, LS Mean (Week 12, 400 mg BID): 0.84 | AQLQ(S) Symptoms score, change from baseline, Mean (Week 12, 400 mg BID): 0.87 | AQLQ(S) Symptoms score, change from baseline, Median (Week 12, 400 mg BID): 0.83 | AQLQ(S) Environmental stimuli score, change from baseline, LS Mean Diff vs. placebo (Week 12, 400 mg BID, 95% CI 0.06, 1.49): 0.78 | AQLQ(S) Emotional function score, change from baseline, LS Mean Diff vs. placebo (Week 12, 400 mg BID, 95% CI 0.12, 1.36): 0.74 | AQLQ(S) Symptoms score, change from baseline, LS Mean Diff vs. placebo (Week 12, 400 mg BID, 95% CI 0.22, 1.11): 0.67 | AQLQ(S) Global score, change from baseline, LS Mean Diff vs. placebo (Week 12, 400 mg BID, 95% CI 0.25, 1.18): 0.72 | AQLQ(S) Activity limitation score, change from baseline, LS Mean Diff vs. placebo (Week 12, 400 mg BID, 95% CI 0.28, 1.28): 0.78 | AQLQ(S) Activity limitation score, Mean (Week 12, 400 mg TID): 5.45 | AQLQ(S) Activity limitation score, Median (Week 12, 400 mg TID): 5.36 | AQLQ(S) Activity limitation score, change from baseline, LS Mean (Week 12, 400 mg TID): 0.62 | AQLQ(S) Activity limitation score, change from baseline, Mean (Week 12, 400 mg TID): 0.50 | AQLQ(S) Activity limitation score, change from baseline, Median (Week 12, 400 mg TID): 0.55 | AQLQ(S) Emotional function score, Mean (Week 12, 400 mg TID): 5.57 | AQLQ(S) Emotional function score, Median (Week 12, 400 mg TID): 5.60 | AQLQ(S) Emotional function score, change from baseline, LS Mean (Week 12, 400 mg TID): 0.53 | AQLQ(S) Emotional function score, change from baseline, Mean (Week 12, 400 mg TID): 0.43 | AQLQ(S) Emotional function score, change from baseline, Median (Week 12, 400 mg TID): 0.40 | AQLQ(S) Environmental stimuli score, Mean (Week 12, 400 mg TID): 5.08 | AQLQ(S) Environmental stimuli score, change from baseline, LS Mean (Week 12, 400 mg TID): 0.54 | AQLQ(S) Environmental stimuli score, change from baseline, Mean (Week 12, 400 mg TID): 0.46 | AQLQ(S) Environmental stimuli score, change from baseline, Median (Week 12, 400 mg TID): 0.50 | AQLQ(S) Global score, Mean (Week 12, 400 mg TID): 5.41 | AQLQ(S) Global score, Median (Week 12, 400 mg TID): 5.23 | AQLQ(S) Global score, change from baseline, LS Mean (Week 12, 400 mg TID): 0.57 | AQLQ(S) Global score, change from baseline, Mean (Week 12, 400 mg TID): 0.46 | AQLQ(S) Global score, change from baseline, Median (Week 12, 400 mg TID): 0.53 | AQLQ(S) Symptoms score, Mean (Week 12, 400 mg TID): 5.41 | AQLQ(S) Symptoms score, Median (Week 12, 400 mg TID): 5.25 | AQLQ(S) Symptoms score, change from baseline, LS Mean (Week 12, 400 mg TID): 0.59 | AQLQ(S) Symptoms score, change from baseline, Mean (Week 12, 400 mg TID): 0.44 | AQLQ(S) Symptoms score, change from baseline, Median (Week 12, 400 mg TID): 0.58 | AQLQ(S) Activity limitation score, change from baseline, LS Mean Diff vs. placebo (Week 12, 400 mg TID, 95% CI 0.02, 0.60): 0.31 | AQLQ(S) Global score, change from baseline, LS Mean Diff vs. placebo (Week 12, 400 mg TID, 95% CI −0.01, 0.60): 0.29 | AQLQ(S) Symptoms score, change from baseline, LS Mean Diff vs. placebo (Week 12, 400 mg TID, 95% CI −0.01, 0.68): 0.34 | AQLQ(S) Emotional function score, change from baseline, LS Mean Diff vs. placebo (Week 12, 400 mg TID, 95% CI −0.08, 0.72): 0.32 | AQLQ(S) Environmental stimuli score, change from baseline, LS Mean Diff vs. placebo (Week 12, 400 mg TID, 95% CI −0.23, 0.57): 0.17
